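Assay format: 96-well plates, 48-hour exposure. At the GI50, growth is halved. TGI: concentration producing complete growth inhibition.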
Tests used:
Test in all cases: DTP human tumour cell line panel, 48 h
[1] = test system: HT29 colon
[2] = test system: NCI-H226 lung
[3] = test system: BT-549 breast
[4] = test system: OVCAR-8 ovarian
[5] = test system: OVCAR-5 ovarian
[6] = test system: CCRF-CEM leukemia
[7] = test system: SF-295 CNS
[8] = test system: HS 578T breast
[9] = test system: UACC-257 melanoma
[10] = test system: COLO 205 colon

Compound	GI50 [1]	TGI [1]	GI50 [2]	TGI [2]	GI50 [3]	TGI [3]	GI50 [4]	TGI [4]	GI50 [5]	TGI [5]	GI50 [6]	TGI [6]	GI50 [7]	TGI [7]	GI50 [8]	TGI [8]	GI50 [9]	TGI [9]	GI50 [10]	TGI [10]
CCN(CC)CCCNCc1cc(-c2ccccc2)nc2ccccc12	2.77 µM	10.6 µM	19.8 µM	> 100 µM	3.77 µM	15.9 µM	3.21 µM	10.6 µM	37.9 µM	> 100 µM	2.22 µM	> 100 µM	16.5 µM	44.7 µM	16.8 µM	> 100 µM	5.11 µM	18.3 µM	15.8 µM	31.3 µM
COc1cc(-c2cc(O)c(-c3ccc4ccccc4n3)c(=O)[nH]2)cc(OC)c1OC	–	> 73.1 µM	–	> 77.6 µM	–	> 100 µM	–	> 54.9 µM	–	> 94.2 µM	–	> 30.6 µM	–	> 67.7 µM	–	> 100 µM	–	> 100 µM	–	> 93.2 µM
CCOC(=O)c1cc2c(cc1Cl)SC(N(c1ccc(OC)cc1)S(=O)(=O)c1ccc(Cl)cc1)=NS2(=O)=O	29.4 µM	> 100 µM	94.1 µM	> 100 µM	–	–	–	–	> 100 µM	> 100 µM	0.666 µM	> 100 µM	54.9 µM	> 100 µM	46.7 µM	> 100 µM	–	–	18.4 µM	48.7 µM
NC(=O)/N=C1/CCC2C3CCCC2C13	–	> 100 µM	–	> 100 µM	–	–	–	> 100 µM	–	> 100 µM	–	> 100 µM	–	> 100 µM	–	–	–	> 100 µM	–	> 100 µM
Oc1ccc2ccccc2c1N=Nc1ccsc1	–	> 100 µM	–	> 100 µM	–	–	–	> 100 µM	–	> 100 µM	–	> 100 µM	–	> 100 µM	–	–	–	> 100 µM	–	> 100 µM
CNC(=O)c1ccccc1Nc1nc(Nc2cc(OC)c(OC)c(OC)c2)ncc1Br	0.0161 µM	12.7 µM	0.0265 µM	0.214 µM	0.0704 µM	1.17 µM	0.0483 µM	12.2 µM	0.0321 µM	31.7 µM	0.0523 µM	> 19.9 µM	0.0282 µM	0.868 µM	0.0259 µM	0.569 µM	0.0328 µM	3.47 µM	0.0151 µM	0.0591 µM
CN(C)CCNC(=O)c1cccc(N(C)C(=O)c2ccccc2)c1[N+](=O)[O-]	–	> 100 µM	–	> 100 µM	–	> 100 µM	–	> 100 µM	–	> 100 µM	–	> 100 µM	–	> 100 µM	–	> 100 µM	–	> 10 µM	–	> 10 µM
Cc1ccc(S(=O)(=O)NC2(C=O)CCCC3CCCCC32)cc1 (configuration not stated)	–	–	–	> 100 µM	–	–	–	> 100 µM	–	–	–	> 100 µM	–	–	–	–	–	> 100 µM	–	> 100 µM
CC12CCC3(OCCO3)C(OC(=O)c3ccccc3)=C1CCC21OCCO1 (configuration not stated)	–	> 100 µM	–	> 100 µM	–	–	–	> 100 µM	–	> 100 µM	–	> 100 µM	–	> 100 µM	–	–	–	> 100 µM	–	> 100 µM
O=c1[nH]c(=S)[nH]c2c1CN(CCCN1CCOCC1)CN2	–	> 100 µM	–	> 100 µM	–	> 100 µM	–	96.4 µM	–	> 100 µM	–	–	–	> 100 µM	–	> 100 µM	–	> 100 µM	–	38.6 µM
Nc1nnnn1CCO	–	> 100 µM	–	> 100 µM	–	> 100 µM	–	> 100 µM	–	> 100 µM	–	–	–	> 100 µM	–	> 100 µM	–	> 100 µM	–	> 100 µM
CC(Nc1ccc(S(=O)(=O)N=C(N)N)cc1)c1c2ccccc2nc2ccccc12 (configuration not stated)	–	> 100 µM	–	80.4 µM	–	–	–	76.8 µM	–	> 100 µM	–	60.5 µM	–	> 100 µM	–	–	–	97.6 µM	–	> 100 µM
Oc1ccc(C(c2ccc(O)cc2)c2ccc(O)cc2)cc1	–	41.6 µM	–	67.3 µM	–	54.2 µM	–	32.6 µM	–	–	–	92.6 µM	–	> 100 µM	–	56.1 µM	–	52.4 µM	–	20.8 µM
C/C(=N\NS(=O)(=O)c1ccc(C)cc1)P(=O)(O)O	–	> 100 µM	–	> 100 µM	–	> 100 µM	–	> 100 µM	–	> 100 µM	–	–	–	> 100 µM	–	> 100 µM	–	> 100 µM	–	> 100 µM
O=C(O)CCC(N=Cc1nc(-c2ccccc2)oc1O)C(=O)O (configuration not stated)	–	> 100 µM	–	> 100 µM	–	–	–	> 100 µM	–	> 100 µM	–	> 100 µM	–	> 100 µM	–	–	–	> 100 µM	–	> 100 µM
O=[P+](O)c1ccsc1	–	> 100 µM	–	–	–	–	–	> 100 µM	–	–	–	> 100 µM	–	–	–	–	–	–	–	> 100 µM
COC(=O)C(C(=O)C(=O)Nc1ccc([N+](=O)[O-])cc1[N+](=O)[O-])c1nc2ccc(Cl)cc2[nH]c1=O (configuration not stated)	–	> 100 µM	–	> 100 µM	–	–	–	> 100 µM	–	> 100 µM	–	> 100 µM	–	> 100 µM	–	–	–	> 100 µM	–	> 100 µM
CC(C)([NH-])CO.CC(C)([NH-])CO.[Cl][Cd][Cl]	28.8 µM	67.1 µM	7.84 µM	20.9 µM	–	–	52.8 µM	> 100 µM	16.8 µM	30.5 µM	15.9 µM	38.8 µM	> 100 µM	> 100 µM	–	–	> 100 µM	> 100 µM	26.1 µM	55.8 µM
O=C(Nc1ccc(Cl)c(Cl)c1)Nc1c(Oc2ccc(Cl)c(Cl)c2)ccc(Cl)c1S(=O)(=O)O	1.84 µM	> 100 µM	3.91 µM	> 100 µM	1.71 µM	> 100 µM	3.7 µM	> 100 µM	4.09 µM	> 100 µM	4.03 µM	> 100 µM	–	–	2.21 µM	8.79 µM	–	–	2.39 µM	> 100 µM
O=c1c(Br)cc2nc3ccccc3sc-2c1Br	–	> 100 µM	–	> 100 µM	–	–	–	41.4 µM	–	> 100 µM	–	> 100 µM	–	> 100 µM	–	–	–	> 85.4 µM	–	> 91 µM

Source: PubChem BioAssay (NCI)
